These results are taken from patent publication US10947196B2, “Beta adrenergic agonist and methods of using the same” (CURASEN THERAPEUTICS, INC., priority 2019, dated 2021).

Read-outs that look alike come from different tables or passages of the source.

Data set [1] can be described thus: Microsomal stability (human). Format: in vitro ADME. The settings on record: liver microsomes 0.5 mg/mL; method gives CLint in μL/min/mg protein. As to the method: The master solution was prepared as follows.
With NADPH: 10 μL of 20 mg/mL liver microsomes and 40 μL of 10 mM NADPH were added to the incubations. The final concentrations of microsomes and NADPH were 0.5 mg/mL and 1 mM, respectively.
Without NADPH: 10 μL of 20 mg/mL liver microsomes and 40 μL of ultra-pure H2O were added to the incubations. The final concentration of microsomes was 0.5 mg/mL.
The reaction was started with the addition of 4 μL of 3, 10, 30 and 100 μM test compound solution or control compound solution at the final concentration of 0.03, 0.1, 0.3 and 1 μM and carried out at 37° C.
Aliquots of 50 μL were taken from the reaction solution at 0, 15, 30, 45 and 60 min. The reaction was stopped by the addition of 4 volumes of cold acetonitrile with IS (100 nM alprazolam, 200 nM labetalol, 200 nM caffeine and 2 μM ketoprofen). Samples were centrifuged at 3, 220 g for 40 minutes. Aliquot of 100 μL of the supernatant was mixed with 100 μL of ultra-pure H2O and then used for LC-MS/MS analysis.
Peak areas were determined from extracted ion chromatograms. The slope value, k, was determined by linear regression of the natural logarithm of the remaining percentage of the parent drug vs. incubation time curve.
The in vitro half-life (in vitro t1/2) was determined from the slope value: in vitro t1/2=−(0.693/k) […]

A short description of data set [2]: Hepatocyte stability (dog). Particulars: 0.5×10^6 viable cells/mL. Format: in vitro ADME. As to the method: 10 mM and 100 μM stock solutions of test compound(s) and a positive control were prepared in appropriate solvent (DMSO). In separate conical tubes, the 10 mM test compound and the positive control were diluted to 100 μM by combining 198 μL of 50% acetonitrile/50% water and 2 μL of 10 mM stock. The 100 μM test compound and the positive control were diluted to 30 μM by combining 140 μL of 50% acetonitrile/50% water and 60 μL of 100 μM stock solution. The 100 μM test compound and the positive control were diluted to 10 μM by combining 180 μL of 50% acetonitrile/50% water and 20 μL of 100 μM stock solution. The 100 μM test compound and the positive control were diluted to 3 μM by combining 194 μL of 50% acetonitrile/50% water and 6 μL of 100 μM stock solution.
Incubation medium (William's E Medium supplemented with GlutaMAX) and hepatocyte thawing medium was placed in a 37° C. water bath, and allowed to warm for at least 15 minutes prior to use. A vial of cryopreserved hepatocytes from storage was then removed, ensuring that the vial remains at cryogenic temperatures until thawing process ensues. Cells were thawed by placing the vial in a 37° C. water bath and gently shaking the vial for 2 minutes. After thawing was completed, the vial was sprayed with 70% ethanol and transferred to a biosafety cabinet.
A wide-bore pipette tip was used to transfer hepatocytes into 50 mL conical tube containing thawing medium. The 50 mL conical tube was placed into a centrifuge and spun at 100 g for 10 minutes. Upon completion of spin, the thawing medium was aspirated and the hepatocytes were resuspended in enough incubation medium to yield ˜1.5×10^6 cells/mL.
Using AOPI staining solution, cells were counted and the viable cell density was determined. Cells with poor viability (<75% viability) are not acceptable for use. […]
All calculations were carried out using Microsoft Excel. Peak areas were determined from extracted ion chromatograms. […]
The in vitro half-life (in vitro t1/2) was determined from the slope value: in vitro t1/2=0.693/k

The nature of data set [3]: Mouse CNS exposure measurement (plasma, CSF, brain). Format: in vivo, male C57BL/6J mice. The settings on record: male, C57BL/6J; for concentration at 100 min: PO 5 mg/kg; for concentration at 60 min: in vivo, sc, 1 mg/kg, SC 1 mg/kg. The protocol:
These rats were typically about 6-8 weeks old, weighing 200 g to 300 g. Animals were fasted overnight and free access to food 4 hours after dosing. A required volume of vehicle was added to reach the target concentration of the test article and vehicle component to prepare for the dosing. The dosing vehicle was PEG400 or 30% PEG400 in saline for IV, or 0.5% methylcellulose in water for PO. For IV dosing, the animals were administered intravenously via tail vein. For PO dosing, the animals were administered via oral gavage. After dosing, blood sample was collected (˜0.2 mL per time point) through jugular vein or heart puncture. Blood of each sample was transferred into plastic micro centrifuge tubes containing EDTA-K2. Collection tubes with blood samples and anticoagulant were inverted several times for proper mixing of the tube contents and then placed on wet ice. The blood samples were centrifuged at 2000 g for 5 minutes at 4° C. to obtain plasma which was stored in a freezer at −75±15° C. prior to analysis. Samples were analyzed using LC-MS/MS. WinNonlin were used for pharmacokinetic calculations.
For CSF sampling, after anesthesia, the foramen magnum was exposed, and a syringe was used with a venoclysis needle to sample the CSF. The CSF samples were stored in polypropylene tubes, then stored in a freezer at −75±15° C. prior to analysis.
For brain sampling, the rats were fully exsanguinated by using a risen of carbon dioxide prior to brain collection. Brain samples were then collected at adopted time point, quick frozen and kept at −75±15° C. All brain samples were weighted and homogenated with PBS by brain weight (g) to PBS volume (mL) ratio 1:3 before analysis. The actual concentration is the detected value multiplied by the dilution factor.
These mice were typically about 6-8 weeks old, weighing 20 g to 30 g. Animals were free access to food before dosing. Sample amount was ˜0.03 mL per time point and sample site was dorsal metatarsal or heart puncture.

In data set [1], `CC(C)(C)NC[C@H](O)c1cccc(C(F)(F)F)n1` [Compound 03-3] yielded a Microsomal stability, Human of 3.49 µL/min/mg protein. In data set [2], the “Hepatocyte stability, Dog” value came to 5.3 μL/min/10^6 cells. The concentration at 100 min came to 302 ng/mL in data set [3] (CSF, po, 5 mg/kg, read-out: Concentration, CSF); 988 ng/g in data set [3] (brain, po, 5 mg/kg, read-out: Concentration, Brain); 557 ng/mL in data set [3] (plasma, po, 5 mg/kg, read-out: Concentration, Plasma).
`CC(C)(C)NC[C@H](O)c1cccc(C#N)n1` [Compound 03-5, (S)-6-(2-(tert-butylamino)-1-hydroxyethyl)picolinonitrile] yielded a Microsomal stability, Human in data set [1] of 2.96 µL/min/mg protein. Further, the “Hepatocyte stability, Dog” value in data set [2] is listed as 5.94-7.63 μL/min/10^6 cells. For the same compound, the concentration at 100 min came to 621 ng/mL in data set [3] (CSF, read-out: Concentration, CSF); 989 ng/g in data set [3] (brain, read-out: Concentration, Brain); 1340 ng/mL in data set [3] (plasma, read-out: Concentration, Plasma).
In the case of `Cc1ncccc1[C@@H](O)CNC(C)(C)C` [Compound 03-115], in data set [2], the “Hepatocyte stability, Dog” value is given as 8.13 μL/min/10^6 cells. The concentration at 60 min in data set [3] (read-out: Concentration, Brain) worked out at 280 ng/g; in data set [3] (read-out: Concentration, CSF), 157 ng/mL; in data set [3] (read-out: Concentration, Plasma) it was 270 ng/mL.
